Reference: patent US20060062865A1, “Tyrosinase inhibitor and method for preparation” (priority 2004, published 2006)

Test system: mushroom tyrosinase
Assay: Mushroom tyrosinase in vitro enzyme assay (absorbance at 492 nm)
Assay type: biochemical
Conditions: in vitro tyrosinase (mushroom) enzyme activity
Method: Enzyme assay. The mushroom tyrosinase was used for the bioassay. It was purchased from Sigma Chemical Co. (St. Louis, Mo.). The assay was performed by adding 200 microliters of reaction cocktail (mixture of potassium phosphate buffer 50 mM, pH 6.5, 10 ml; 1 mM tyrosine solution, 10 ml and deionized water, 9 ml) and 10 microliters of tested extract dissolved in ethanol at concentration of 1 mg/ml followed by 10 microliters of tyrosinase (1000 units/ml) to 96-well plate. After 2 min incubation at room temperature, the initial absorbance was read at 492 nm on the plate reader. Final absorbance values were read after 10 minutes. The enzyme activity was calculated from the differential values for absorbance and then converted into inhibitory activity. Kojic acid was used as standard at a concentration of 1 mg/ml dissolved in 95% ethanol.

Inhibition at 1 mg/ml (sample 1 mg/ml in ethanol, tyrosine substrate, Table 1 experiment): 88%
Inhibition at 1 mg/ml (sample 1 mg/ml, extracts of different plant parts, Table 2 experiment): 86%
Compound: O=c1cc(CO)occ1O [Kojic acid]
